One assay has as its system Male Lister Hooded rats. In words: Novel Object Recognition test. Format: in vivo. The note with it: rat, 24 h delay. On the procedure: The Novel Object Recognition test (NOR) is based on the greater spontaneous exploration of a novel object, compared with a familiar object, observed in rodents (Behav. Brain Res., 1988, 31(1), 47-59). […] Therefore, it is considered to be analogous to recognition memory tests used in human clinical testing. Male Lister Hooded rats were assessed for object recognition in a test apparatus comprising of a perspex test arena housed within a sound attenuating chamber. Video images of behaviour were captured by digital camera and recorded to a computer. Rats were habituated to the test arena on four occasions prior to testing. Habituation sessions replicated the test day sequence exactly with the exception of object presentation. On test days, each rat was placed into the test arena and 3 minutes later the rat was presented with two identical objects (plastic shapes). The time spent actively exploring the objects during a 3-minute test period (T1) was recorded. Following T1 rats were returned to home cages. After 24 hours each rat was again placed in the test arena and 3 minutes later was presented with one of the now familiar objects and a novel object, and again the time spent actively exploring the objects during a 3-minute test period (T2) was recorded. The presentation order and position of objects (left/right) was randomised within groups to prevent bias from order or place preference. Objects were cleaned with 70% ethanol solution between trials to remove any olfactory/taste cues. Compounds were administered by oral gavage at an appropriate pre-treatment time prior to T1 and T2 (n=12) at dosage ranges between 0.03 and 3 mg/kg. In some experiments the 5-HT6 receptor antagonist N-(3,5-dichloro-2-methoxyphenyl)-4-methoxy-3-(piperazin-1-yl)benzenesulfonamide (CAS 402713-80-8) (10 mg/kg p.o.; 4 h pre-treatment time) was included as a positive control. Vehicle controls (1% methylcellulose in water) were included for comparison in each study. Results are expressed as the d2 index (difference in time spent exploring novel and familiar objects/total object exploration in T2).

The subject of a further assay is male Long-Evans rats. In words: Novel Object Recognition Test in Scopolamine-Induced Cognitive Deficit Condition. Format: in vivo. Particulars: rat. On the procedure:
For 2 days before starting the test, 6-week old male Long-Evans rats were acclimated to experimental operations such as administration and a test device (that is, a black or gray plastic cage with a width of 40 cm, a depth of 30 cm and a height of 45 cm). Each test compound was dissolved in a 0.5% methylcellulose in water to be orally administered at dosage ranges between 0.01 and 0.1 mg/kg. Thirty minutes after the test compound administration, scopolamine hydrobromide dissolved in a saline was intraperitoneally administered at a 0.7 mg/kg dose, so as to induce cognitive impairment. After another 30 minutes, each rat was acclimated in the test device for 3 minutes, and thereafter, two blocks in the same shape were put in the test device as acquisition trial, and exploring time for each block was measured for 5 minutes. Two hours after the acquisition trial, the rat was acclimated in the test device for 3 minutes, and thereafter, the same block as those used in the acquisition trial and a new block in a different shape were put in the cage for retention trial. The exploring time for each block was measured for 3 minutes, and a ratio of the exploring time for the newly used block to the sum of the exploring times for the respective blocks was calculated as a discrimination index (novel object exploration time/total object exploration time in retention trial×100). […]
Each discrimination index was shown as an average and a standard error. The statistical significance between the vehicle group and the scopolamine alone group was analyzed by the independent t-test. The statistical significance between the scopolamine alone group and each sample group was analyzed by one-way analysis of variance and then by Dunnett's multiple comparison test. […]

Each structure is given as a SMILES string.

Regarding `O=C(N[C@H]1CCCC[C@@H]1O)c1cn(Cc2ccc(F)cc2)c2cccnc12` [Example 5, 1-(4-Fluorobenzyl)-N-((1S,2S)-2-hydroxycyclohexyl)-1H-pyrrolo[3,2-b]pyridine-3-carboxamide], the “d2 index [mean ± SEM]” value with Male Lister Hooded rats (0.03 mg/kg p.o.) is “[0.04 ± 0.06]”; with Male Lister Hooded rats (0.1 mg/kg p.o.) it was “[0.20 ± 0.05]**”; with Male Lister Hooded rats (0.3 mg/kg p.o.) it was “[0.28 ± 0.05]***”. The “discrimination index [mean ± SEM]” value is “[50.5 ± 4.3]” in the assay with male Long-Evans rats (Scopolamine/0.01 mg/kg p.o.), “[61.7 ± 2.5]” with male Long-Evans rats (Scopolamine/0.03 mg/kg p.o.) and “[72.9 ± 2.6]###” in the assay with male Long-Evans rats (Scopolamine/0.1 mg/kg p.o.).

(Values after patent US10072005B2, “4-azaindole derivatives” (EISAI R&D MANAGEMENT CO., LTD., priority 2013, dated 2018).)
